Data on 1 compound can be found in ChEMBL document CHEMBL1687704, “Benzimidazole-2-pyrazole HIF Prolyl 4-Hydroxylase Inhibitors as Oral Erythropoietin Secretagogues” (ACS Med Chem Lett, 2010).

SMILES strings stand for the structures.

Data set [1] can be described thus: Plasma concentration in Balb-C mouse at 100 umol/kg, po after 1 hr. Type of data set: ADME, organism-based.
Data set [2] can be described thus: Plasma concentration in Balb-C mouse at 100 umol/kg, po after 6 hrs. Type of data set: ADME, organism-based.

`O=C(O)c1cnn(-c2nc3cc(C(F)(F)F)c(F)cc3[nH]2)c1`: the concentration at 1 h in data set [1] turned out to be 14 µM. Further, in data set [2], the concentration at 6 h turned out to be 0.1 µM.
